Patent US10245261B2, “Substituted indol-5-ol derivatives and their therapeutic applications” (NantBioScience, Inc., priority 2013, dated 2019)

How the values were obtained:
Assay in all cases: KinaseProfiler kinase assay
Type in all cases: biochemical
Rsk3(h) = Rsk3(h) (Homo sapiens, UniProt Q15349)
Procedure, shortened: (§1)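 Steps: compound diluted from DMSO into MOPS/BSA assay buffer; MgATP mix with [γ-33P]ATP added to start; 40 min incubation at room temperature; phosphoric acid stop; filtermat spotting, washing in 50 mM phosphoric acid and methanol; scintillation counting.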

MLK1(h) = MLK1(h) (Homo sapiens, UniProt P80192)
Procedure, shortened: as §1

EphB4(h) = EphB4(h) (Homo sapiens, UniProt P54760)
Procedure, shortened: as §1

EphA1(h) = EphA1(h) (Homo sapiens, UniProt P21709)
Procedure, shortened: as §1

[1] = target: PI3 Kinase (p110α/p85α)(m) (Mus musculus, UniProt P42337)
Procedure, shortened: as §1

PTK5(h) = PTK5(h) (Homo sapiens, UniProt P42685)
Procedure, shortened: as §1

CDK3/cyclinE(h) = CDK3/cyclinE(h) (Homo sapiens, UniProt Q00526)
Procedure, shortened: as §1

PEK(h) = PEK(h) (Homo sapiens, UniProt Q9NZJ5)
Procedure, shortened: as §1

MSSK1(h) = MSSK1(h) (Homo sapiens, UniProt Q9UPE1)
Procedure, shortened: as §1

DDR2(h) = DDR2(h) (Homo sapiens, UniProt Q16832)
Procedure, shortened: as §1

Axl(h) = Axl(h) (Homo sapiens, UniProt P30530)
Procedure, shortened: as §1

TAO3(h) = TAO3(h) (Homo sapiens, UniProt Q9H2K8)
Procedure, shortened: as §1

AMPKα1(h) = AMPKα1(h) (Homo sapiens, UniProt Q13131)
Procedure, shortened: as §1

CSK(h) = CSK(h) (Homo sapiens, UniProt P41240)
Procedure, shortened: as §1

PAK5(h) = PAK5(h) (Homo sapiens, UniProt Q9P286)
Procedure, shortened: as §1

MSK1(h) = MSK1(h) (Homo sapiens, UniProt O75582)
Procedure, shortened: as §1

CDK2/cyclinA(h) = CDK2/cyclinA(h) (Homo sapiens, UniProt P24941)
Procedure, shortened: as §1

PDGFRα(D842V)(h) = PDGFRα(D842V)(h) (Homo sapiens, UniProt P16234, D842V)
Procedure, shortened: as §1

SAPK2a(h) = SAPK2a(h) (Homo sapiens, UniProt Q16539)
Procedure, shortened: as §1

NEK11(h) = NEK11(h) (Homo sapiens, UniProt Q8NG66)
Procedure, shortened: as §1

ACK1(h) = ACK1(h) (Homo sapiens, UniProt Q07912)
Procedure, shortened: as §1

SGK2(h) = SGK2(h) (Homo sapiens, UniProt Q9HBY8)
Procedure, shortened: as §1

ASK1(h) = ASK1(h) (Homo sapiens, UniProt Q99683)
Procedure, shortened: as §1

CaMKI(h) = CaMKI(h) (Homo sapiens, UniProt Q14012)
Procedure, shortened: as §1

Plk1(h) = Plk1(h) (Homo sapiens, UniProt P53350)
Procedure, shortened: as §1

Blk(h) = Blk(h) (Homo sapiens, UniProt P51451)
Procedure, shortened: as §1

Ros(h) = Ros(h) (Homo sapiens, UniProt P08922)
Procedure, shortened: as §1

TrkA(h) = TrkA(h) (Homo sapiens, UniProt P04629)
Procedure, shortened: as §1

Src(T341M)(h) = Src(T341M)(h) (Homo sapiens, UniProt P12931, T341M)
Procedure, shortened: as §1

PDK1(h) = PDK1(h) (Homo sapiens, UniProt O15530)
Procedure, shortened: as §1

MELK(h) = MELK(h) (Homo sapiens, UniProt Q14680)
Procedure, shortened: as §1

PKCθ(h) = PKCθ(h) (Homo sapiens, UniProt Q04759)
Procedure, shortened: as §1

CDK3/cyclinE(h), sequence (Q00526 whole entry): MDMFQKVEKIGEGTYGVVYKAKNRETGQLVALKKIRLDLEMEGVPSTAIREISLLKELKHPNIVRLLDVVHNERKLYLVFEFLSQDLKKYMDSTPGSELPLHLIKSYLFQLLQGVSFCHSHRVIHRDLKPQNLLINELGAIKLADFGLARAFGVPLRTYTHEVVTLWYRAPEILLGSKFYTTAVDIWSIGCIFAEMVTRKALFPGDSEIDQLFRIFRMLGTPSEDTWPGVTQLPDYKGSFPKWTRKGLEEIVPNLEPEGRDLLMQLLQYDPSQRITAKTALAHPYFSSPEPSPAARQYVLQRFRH
CDK3/cyclinE(h), sequence (P24864 whole entry partner): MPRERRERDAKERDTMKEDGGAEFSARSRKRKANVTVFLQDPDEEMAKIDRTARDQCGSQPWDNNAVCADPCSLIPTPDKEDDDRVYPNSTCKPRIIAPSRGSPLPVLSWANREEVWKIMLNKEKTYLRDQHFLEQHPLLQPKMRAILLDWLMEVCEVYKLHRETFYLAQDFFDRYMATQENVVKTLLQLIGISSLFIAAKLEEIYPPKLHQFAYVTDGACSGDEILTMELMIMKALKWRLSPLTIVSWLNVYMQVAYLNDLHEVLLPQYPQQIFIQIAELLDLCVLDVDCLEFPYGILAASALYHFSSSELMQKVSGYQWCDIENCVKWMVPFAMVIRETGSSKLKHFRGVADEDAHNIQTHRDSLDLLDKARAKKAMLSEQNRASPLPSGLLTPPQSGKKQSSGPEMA
SGK2(h), sequence (Q9HBY8 whole entry): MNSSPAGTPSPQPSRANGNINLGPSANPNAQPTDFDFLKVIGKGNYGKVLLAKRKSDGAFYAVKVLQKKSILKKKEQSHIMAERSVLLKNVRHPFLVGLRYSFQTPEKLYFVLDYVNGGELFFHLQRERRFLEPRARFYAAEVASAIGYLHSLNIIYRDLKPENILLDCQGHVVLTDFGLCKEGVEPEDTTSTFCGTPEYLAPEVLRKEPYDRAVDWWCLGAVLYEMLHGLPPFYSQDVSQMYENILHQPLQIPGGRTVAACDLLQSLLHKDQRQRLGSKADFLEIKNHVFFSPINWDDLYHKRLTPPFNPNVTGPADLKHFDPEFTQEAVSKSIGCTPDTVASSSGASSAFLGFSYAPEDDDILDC
PKCθ(h), sequence (Q04759 whole entry): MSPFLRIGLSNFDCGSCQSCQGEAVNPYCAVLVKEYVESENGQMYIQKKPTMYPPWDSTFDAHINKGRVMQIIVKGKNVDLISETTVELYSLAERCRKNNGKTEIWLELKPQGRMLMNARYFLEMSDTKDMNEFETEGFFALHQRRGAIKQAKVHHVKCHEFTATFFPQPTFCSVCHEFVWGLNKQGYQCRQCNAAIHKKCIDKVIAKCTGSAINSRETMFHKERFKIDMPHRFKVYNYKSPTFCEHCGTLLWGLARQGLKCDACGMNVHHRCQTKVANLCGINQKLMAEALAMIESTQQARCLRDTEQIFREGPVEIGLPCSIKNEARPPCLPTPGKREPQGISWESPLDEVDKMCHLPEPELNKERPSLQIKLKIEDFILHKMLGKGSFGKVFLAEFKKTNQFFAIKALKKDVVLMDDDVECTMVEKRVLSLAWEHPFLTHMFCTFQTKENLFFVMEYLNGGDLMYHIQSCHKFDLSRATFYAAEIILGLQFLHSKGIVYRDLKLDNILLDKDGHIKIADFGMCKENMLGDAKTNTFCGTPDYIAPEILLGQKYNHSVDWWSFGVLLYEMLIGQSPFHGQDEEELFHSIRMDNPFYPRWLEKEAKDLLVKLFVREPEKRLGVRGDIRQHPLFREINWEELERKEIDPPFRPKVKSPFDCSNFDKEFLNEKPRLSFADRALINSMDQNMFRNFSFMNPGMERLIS
ASK1(h), sequence (Q99683 whole entry): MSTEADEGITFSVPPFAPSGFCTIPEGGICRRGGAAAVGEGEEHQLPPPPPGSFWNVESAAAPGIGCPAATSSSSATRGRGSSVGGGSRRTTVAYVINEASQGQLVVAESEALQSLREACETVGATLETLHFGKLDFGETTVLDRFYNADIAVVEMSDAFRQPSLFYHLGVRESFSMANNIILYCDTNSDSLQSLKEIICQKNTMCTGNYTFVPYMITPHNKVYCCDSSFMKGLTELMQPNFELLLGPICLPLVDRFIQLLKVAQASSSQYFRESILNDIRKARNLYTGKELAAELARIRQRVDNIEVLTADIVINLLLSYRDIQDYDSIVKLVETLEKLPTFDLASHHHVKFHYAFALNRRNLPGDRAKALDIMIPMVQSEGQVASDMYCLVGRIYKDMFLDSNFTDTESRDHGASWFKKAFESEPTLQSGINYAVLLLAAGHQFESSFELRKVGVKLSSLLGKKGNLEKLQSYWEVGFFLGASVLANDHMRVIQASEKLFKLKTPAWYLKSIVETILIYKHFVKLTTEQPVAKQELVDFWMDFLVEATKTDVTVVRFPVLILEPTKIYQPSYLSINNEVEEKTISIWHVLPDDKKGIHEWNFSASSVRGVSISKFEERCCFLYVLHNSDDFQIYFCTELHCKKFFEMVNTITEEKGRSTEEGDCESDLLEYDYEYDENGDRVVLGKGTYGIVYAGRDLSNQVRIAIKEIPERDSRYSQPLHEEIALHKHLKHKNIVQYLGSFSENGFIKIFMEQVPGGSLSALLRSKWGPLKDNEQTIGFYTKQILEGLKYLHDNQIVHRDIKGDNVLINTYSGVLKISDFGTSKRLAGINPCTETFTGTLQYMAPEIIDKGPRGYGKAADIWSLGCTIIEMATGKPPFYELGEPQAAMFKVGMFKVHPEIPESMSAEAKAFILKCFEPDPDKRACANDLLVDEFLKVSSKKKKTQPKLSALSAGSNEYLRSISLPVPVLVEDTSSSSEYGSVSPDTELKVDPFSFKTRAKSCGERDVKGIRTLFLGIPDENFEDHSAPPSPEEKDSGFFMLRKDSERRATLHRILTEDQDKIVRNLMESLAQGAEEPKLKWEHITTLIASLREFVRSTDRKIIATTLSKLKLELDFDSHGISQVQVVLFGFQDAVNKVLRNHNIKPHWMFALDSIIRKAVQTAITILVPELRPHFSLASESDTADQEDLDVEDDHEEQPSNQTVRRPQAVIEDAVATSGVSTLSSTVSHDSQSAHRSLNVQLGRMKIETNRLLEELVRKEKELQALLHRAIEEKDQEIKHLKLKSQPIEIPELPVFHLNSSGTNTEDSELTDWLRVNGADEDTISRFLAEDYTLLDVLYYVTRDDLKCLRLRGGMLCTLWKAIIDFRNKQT
NEK11(h), sequence (Q8NG66 whole entry): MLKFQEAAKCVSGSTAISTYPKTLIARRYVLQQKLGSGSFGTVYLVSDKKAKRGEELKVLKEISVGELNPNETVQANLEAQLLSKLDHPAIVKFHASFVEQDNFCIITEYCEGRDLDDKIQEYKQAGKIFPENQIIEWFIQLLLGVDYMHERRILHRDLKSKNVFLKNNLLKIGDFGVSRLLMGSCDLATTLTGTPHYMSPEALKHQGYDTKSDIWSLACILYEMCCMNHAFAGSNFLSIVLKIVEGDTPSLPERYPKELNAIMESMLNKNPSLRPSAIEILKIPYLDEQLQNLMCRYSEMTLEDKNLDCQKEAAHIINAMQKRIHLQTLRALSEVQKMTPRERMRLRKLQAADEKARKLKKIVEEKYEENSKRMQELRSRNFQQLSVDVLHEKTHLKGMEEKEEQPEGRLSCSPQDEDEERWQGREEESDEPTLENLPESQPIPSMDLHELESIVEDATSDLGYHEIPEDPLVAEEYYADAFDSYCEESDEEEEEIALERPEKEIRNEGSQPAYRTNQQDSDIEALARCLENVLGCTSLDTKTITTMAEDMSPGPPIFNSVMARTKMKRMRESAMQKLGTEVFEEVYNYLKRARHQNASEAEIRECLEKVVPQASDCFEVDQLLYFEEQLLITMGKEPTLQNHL
DDR2(h), sequence (Q16832 22-855): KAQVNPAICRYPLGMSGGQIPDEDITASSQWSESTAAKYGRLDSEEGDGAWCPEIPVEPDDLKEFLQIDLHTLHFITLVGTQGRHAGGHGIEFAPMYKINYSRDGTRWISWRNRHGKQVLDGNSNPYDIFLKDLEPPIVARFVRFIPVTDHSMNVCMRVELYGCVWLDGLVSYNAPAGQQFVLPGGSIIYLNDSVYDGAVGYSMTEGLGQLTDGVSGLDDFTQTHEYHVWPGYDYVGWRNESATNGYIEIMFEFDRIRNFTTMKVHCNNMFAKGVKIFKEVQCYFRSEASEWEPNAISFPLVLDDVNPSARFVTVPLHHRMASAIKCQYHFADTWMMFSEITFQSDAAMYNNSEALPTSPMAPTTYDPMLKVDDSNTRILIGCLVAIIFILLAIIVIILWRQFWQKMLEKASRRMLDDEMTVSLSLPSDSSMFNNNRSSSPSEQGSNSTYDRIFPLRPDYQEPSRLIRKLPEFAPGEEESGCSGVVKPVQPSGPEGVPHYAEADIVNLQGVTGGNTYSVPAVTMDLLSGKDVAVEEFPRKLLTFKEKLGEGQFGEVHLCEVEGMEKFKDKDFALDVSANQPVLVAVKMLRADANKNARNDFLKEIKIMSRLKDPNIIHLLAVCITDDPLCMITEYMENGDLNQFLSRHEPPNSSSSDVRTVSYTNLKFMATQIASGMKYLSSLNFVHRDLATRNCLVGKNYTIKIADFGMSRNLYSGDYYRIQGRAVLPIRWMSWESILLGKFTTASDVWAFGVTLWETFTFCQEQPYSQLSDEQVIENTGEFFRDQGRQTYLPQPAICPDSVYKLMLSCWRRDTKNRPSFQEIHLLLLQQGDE
SAPK2a(h), sequence (Q16539 whole entry): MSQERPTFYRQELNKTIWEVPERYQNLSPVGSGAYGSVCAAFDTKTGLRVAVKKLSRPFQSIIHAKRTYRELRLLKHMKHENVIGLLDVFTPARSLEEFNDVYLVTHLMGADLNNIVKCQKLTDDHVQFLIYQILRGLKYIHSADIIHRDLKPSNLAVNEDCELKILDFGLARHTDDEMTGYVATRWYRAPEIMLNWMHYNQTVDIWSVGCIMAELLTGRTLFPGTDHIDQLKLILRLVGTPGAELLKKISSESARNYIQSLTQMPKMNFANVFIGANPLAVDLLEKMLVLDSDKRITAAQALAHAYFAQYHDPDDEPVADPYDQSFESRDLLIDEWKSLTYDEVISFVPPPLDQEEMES

| SMILES | inhibition at 0.1 µM (Rsk3(h)) | inhibition at 0.1 µM (MLK1(h)) | inhibition at 0.1 µM (EphB4(h)) | inhibition at 0.1 µM (EphA1(h)) | inhibition at 0.1 µM [1] | inhibition at 0.1 µM (PTK5(h)) | inhibition at 0.1 µM (CDK3/cyclinE(h)) | inhibition at 0.1 µM (PEK(h)) | inhibition at 0.1 µM (MSSK1(h)) | inhibition at 0.1 µM (DDR2(h)) | inhibition at 0.1 µM (Axl(h)) | inhibition at 0.1 µM (TAO3(h)) | inhibition at 0.1 µM (AMPKα1(h)) | inhibition at 0.1 µM (CSK(h)) | inhibition at 0.1 µM (PAK5(h)) | inhibition at 0.1 µM (MSK1(h)) | inhibition at 0.1 µM (CDK2/cyclinA(h)) | inhibition at 0.1 µM (PDGFRα(D842V)(h)) | inhibition at 0.1 µM (SAPK2a(h)) | inhibition at 0.1 µM (NEK11(h)) | also measured |
| --- | --- | --- | --- | --- | --- | --- | --- | --- | --- | --- | --- | --- | --- | --- | --- | --- | --- | --- | --- | --- | --- |
| Cc1cc2c(F)c(Oc3nc(Nc4cc(C5CC5)[nH]n4)cc(N4CCN(C)CC4)n3)ccc2[nH]1 [Compound 10] | 63% | 84% | 85% | 78% | 1% | 72% | 0% | -4% | 22% | 80% | 70% | 20% | 71% | 12% | 60% | 96% | 5% | 73% | 10% | -8% | inhibition at 0.1 µM (ACK1(h)): 99%; inhibition at 0.1 µM (SGK2(h)): -41%; inhibition at 0.1 µM (ASK1(h)): -14%; inhibition at 0.1 µM (CaMKI(h)): 2%; inhibition at 0.1 µM (Plk1(h)): -9%; inhibition at 0.1 µM (Blk(h)): 94%; inhibition at 0.1 µM (Ros(h)): 12%; inhibition at 0.1 µM (TrkA(h)): 102%; inhibition at 0.1 µM (Src(T341M)(h)): 102%; inhibition at 0.1 µM (PDK1(h)): 13%; inhibition at 0.1 µM (MELK(h)): 69%; inhibition at 0.1 µM (PKCθ(h)): 21% |
| Cc1cc2c(F)c(Oc3nc(Nc4cc(C5CC5)[nH]n4)cc(N4CCNCC4)n3)ccc2[nH]1 [Compound 11, N-(5-cyclopropyl-1H-pyrazol-3-yl)-2-((4-fluoro-2-methyl-1H-indol-5-yl)oxy)-6-(piperazin-1-yl)pyrimidin-4-amine] | 63% | 86% | 85% | 92% | -1% | 72% | 33% | -8% | 0% | 83% | 62% | 8% | 72% | 5% | 68% | 9% | 3% | 70% | -7% | -6% | inhibition at 0.1 µM (ACK1(h)): 95%; inhibition at 0.1 µM (SGK2(h)): -12%; inhibition at 0.1 µM (ASK1(h)): -17%; inhibition at 0.1 µM (CaMKI(h)): 7%; inhibition at 0.1 µM (Plk1(h)): -10%; inhibition at 0.1 µM (Blk(h)): 94%; inhibition at 0.1 µM (Ros(h)): 71%; inhibition at 0.1 µM (TrkA(h)): 100%; inhibition at 0.1 µM (Src(T341M)(h)): 101%; inhibition at 0.1 µM (PDK1(h)): 3%; inhibition at 0.1 µM (MELK(h)): 87%; inhibition at 0.1 µM (PKCθ(h)): -16% |
